The source of these data is patent US8551976B2, “Prochelators for inhibiting metal-promoted oxidative stress” (Duke University, priority 2011, dated 2013).

A short description of this data set: Hydrogen Peroxide Oxidation (LC-MS analysis of prochelator conversion). As to conditions: 2 mM B-HAPI in water/DMSO, addition of 50 μl concentrated (30%) H2O2, room temperature, 1 h, data not shown. Type of data set: physicochemical. The protocol:
Hydrogen Peroxide Oxidation. A 40 mM stock solution of B-HAPI in DMSO was prepared. The reaction mixture (2 mM B-HAPI) was prepared by mixing […] of the B-HAPI stock solution with 450 μl of water and 450 μl of DMSO. The reaction was initiated by addition of 50 μl of concentrated (30%) H2O2 solution. The reaction mixture was incubated at room temperature for 1 h and analyzed by LC-MS.

For `C/C(=N\NC(=O)c1ccncc1)c1ccccc1OCc1ccc(B2OC(C)(C)C(C)(C)O2)cc1` [B-HAPI, N′-(1-(2-(4-(4,4,5,5-tetramethyl-1,3,2-dioxaborolan-2-yl)benzyloxy)phenyl)ethylidene)isonitotinohdrazide], the “Hydrogen peroxide oxidation: products formed (LC-MS)” value is “Formation of the chelator (HAPI) and the intermediate of the self-immolative deprotection reaction was observed”.
